# Results taken from patent US20240122923A1, “METHODS OF TREATING HIDRADENITIS SUPPURATIVA” (AbbVie Inc., priority 2022, published 2024).
# Columns and labels:
# [1] = test system: adult human subjects with moderate to severe Hidradenitis Suppurativa (HS); test: Phase 2 study of upadacitinib in HS, safety (TEAEs, discontinuation due to adverse event); assay type: in vivo
# Text: (§1) This study was a Phase 2, multicenter, randomized, double-blind, parallel-group, placebo-controlled study to evaluate the efficacy and safety of upadacitinib in adult human subjects with moderate to severe Hidradenitis Suppurativa (HS).
# (§2) The duration of the study was 57 weeks, including an approximately 35-day screening period followed by a 48-week double-blinded treatment period and a 30-day follow-up visit after the last dose of study drug. Subjects were randomized in a 2:1 ratio to 1 of the 2 arms as shown below: • Upadacitinib 30 mg once daily (QD) (N=40): Daily oral doses of upadacitinib 30 mg from the Baseline visit through Period 1 and Period 2. • Placebo (N=20): Placebo for upadacitinib from the Baseline visit up to the Week 12 visit (Period 1). At Week 12, subjects were switched to blinded upadacitinib 15 mg QD through Period 2.
# Treatment-emergent adverse events (TEAEs), adverse events of interests (AESIs), and potentially clinically important (PCI) laboratory changes were monitored in Period 1.
# [2] = test system: adult human subjects with moderate to severe Hidradenitis Suppurativa (HS); test: Phase 2 randomized, double-blind, placebo-controlled study of upadacitinib, efficacy incl. post-hoc analysis through week 40; assay type: in vivo; details: for Pain NRS30 at Week 12, UPA - PBO Diff: UPA 30 mg vs historical PBO rate 22.5%, p=0.028; for HiSCR at Week 12, UPA - PBO Diff: UPA 30 mg vs historical PBO rate 25%, 1-sided p=0.018; for HiSCR at Week 12, % (N), stratum TNF-IR / HiSCR at Week 12, % (N), stratum Hurley Stage (III) / HiSCR at Week 12, % (N), stratum Hurley Stage (<III) / HiSCR at Week 12, % (N), stratum TNF-Naïve / HiSCR at Week 12, % (N), Overall: UPA 30 mg; for HiSCR at Week 12, % (N), stratum TNF-IR: N=12; for HiSCR at Week 12, % (N), stratum Hurley Stage (III): N=23; for HiSCR at Week 12, % (N), stratum Hurley Stage (<III): N=24; for HiSCR at Week 12, % (N), stratum TNF-Naïve: N=35; for HiSCR at Week 12, % (N), Overall: N=47
# Text: as §1, §2
# The primary objective of this study was to assess the efficacy and safety of upadacitinib 30 mg QD in adult subjects with moderate to severe HS. The primary efficacy objective was assessed based on the achievement of HiSCR after 12 weeks treatment.
# The primary endpoint was Hidradenitis Suppurativa Clinical Response (HiSCR) at Week 12, where HiSCR is defined as at least 50% reduction in the total abscess and inflammatory nodule (AN) count with no increase in abscess count and no increase in draining fistula count relative to Baseline.
# The secondary endpoint was Pain Numerical Rating Scale (NRS30) at Week 12: the achievement of at least 30% reduction and at least 1 unit reduction from Baseline in NRS30 in Patient's Global Assessment of Skin Pain (PGA Skin Pain) at Week 12, among subjects with Baseline NRS≥3.
# The following additional efficacy endpoints were evaluated: • 1. Experience of flare, defined as an increase in AN count of at least 25% with a minimum increase of 2 relative to Baseline • 2. Change from Baseline in Dermatology Life Quality Index (DLQI) • 3. Change from baseline in Hidradenitis Suppurativa Symptom Assessment (HSSA) • 4. Change from baseline in HS-related swelling, assessed based on the HSSA • 5. Change from baseline in HS-related odor, assessed based on the HSSA • 6. Change from baseline in HS-related worst drainage, assessed based on the HSSA
# For the primary and secondary endpoints, comparisons of upadacitinib vs. placebo were made with 3 different analysis strategies, as summarized in Table 1 below:
# For the additional endpoints, comparisons were made for upadacitinib vs. historical reference value of placebo, and upadacitinib vs. in-trial placebo subjects.
# For categorical variables, the primary approach to handle missing data was Non-Responder Imputation [NRI] incorporating Multiple Imputation [MI]. For continuous variables, missing data was handled by Mixed-effect Model Repeat Measurement (MMRM). Missing data for long-term efficacy in Period 2 were handled based on the observed case (OC).
# A post-hoc efficacy assessment through week 40 was performed in the study of Example 1. The analysis included the proportion of patients achieving ≥75% and ≥90% reduction from baseline in AN count with no increase in abscess or draining fistula count (HiSCR 75 and HiSCR 90, respectively) and the proportion of patients achieving ≥55% reduction in International HS Severity Score System endpoint (IHS4-55), which dynamically assesses inflammatory nodules, abscesses, and draining tunnels.
# [3] = UPA 30 mg vs in-trial PBO, p=0.086
# [4] = MI, analysis vs synthetic + in-trial PBO
smiles,measurement,setting,value
CC[C@@H]1CN(C(=O)NCC(F)(F)F)C[C@@H]1c1cnc2cnc3[nH]ccc3n12 [upadacitinib],most frequently reported TEAE (≥5%),"[1]; Period 1, upadacitinib 30 mg QD group","headache, dizziness, and urinary tract infection"
same,"Discontinued Study Drug during Period 2 (primary reason): Adverse event, n (%)","[1]; Placebo/UPA 15 mg, N=19",0
same,"Discontinued Study Drug during Period 1: Adverse Event, n (%)","[1]; UPA 30 mg, N=47",(2.1) %
same,"Discontinued Study Drug during Period 2 (primary reason): Adverse event, n (%)","[1]; UPA 30 mg, N=47",0
same,"Pain NRS30 at Week 12, UPA - PBO Diff",[2],13.9%
same,"Pain NRS30 at Week 12, UPA - PBO Diff",[2]; listed as UPA,Diff = 13.9%
same,"HiSCR at Week 12, UPA - PBO Diff",[2]; NRI-C,13.3%
same,"HiSCR at Week 12, UPA - PBO Diff","[2]; NRI-C, listed as UPA",Diff = 13.3%
same,"Flare during Period 1, UPA - PBO Diff","[2]; UPA 30 mg vs historical PBO rate 34%, p=0.001",Diff = −21.2
same,"Change in HSSA odor at Week 12, UPA - PBO Diff","[2]; UPA 30 mg vs historical reference value −0.72, p=0.072",Diff = −0.479
same,"Change in HSSA total symptom at Week 12, UPA - PBO Diff","[2]; UPA 30 mg vs historical reference value −0.72, p=0.188",Diff = −0.249
same,"Change in HSSA swelling at Week 12, UPA - PBO Diff","[2]; UPA 30 mg vs historical reference value −0.8, p=0.364",Diff = −0.131
same,"Change in HSSA worst drainage at Week 12, UPA - PBO Diff","[2]; UPA 30 mg vs historical reference value −0.89, p=0.219",Diff = −0.241
same,"Change in DLQI at Week 12, UPA - PBO Diff","[2]; UPA 30 mg vs historical reference value −2.5, p=0.548",Diff = 0.1
same,"Pain NRS30 at Week 12, UPA - PBO Diff (adjusted difference)","[2]; UPA 30 mg vs in-trial PBO (N=12), p=0.421",2.2%
same,"Pain NRS30 at Week 12, UPA - PBO Diff (adjusted difference)","[2]; UPA 30 mg vs in-trial PBO (N=12), p=0.421, listed as UPA",Diff = 2.2%
same,"HiSCR at Week 12, UPA - PBO Diff (adjusted difference)","[2]; UPA 30 mg vs in-trial PBO (N=21), NRI-C, p=0.087",14.7%
same,"HiSCR at Week 12, UPA - PBO Diff (adjusted difference)","[2]; UPA 30 mg vs in-trial PBO (N=21), NRI-C, p=0.087, listed as UPA",Diff = 14.7%
same,"Change in HSSA odor at Week 12, UPA - PBO Diff","[2]; UPA 30 mg vs in-trial PBO, p=0.024",Diff = −1.246
same,"Change in HSSA total symptom at Week 12, UPA - PBO Diff","[2]; UPA 30 mg vs in-trial PBO, p=0.046",Diff = −0.762
same,"Change in HSSA swelling at Week 12, UPA - PBO Diff",[2]; [3],Diff = −0.795
same,"Change in HSSA worst drainage at Week 12, UPA - PBO Diff",[2]; [3],Diff = −0.695
same,"Change in DLQI at Week 12, UPA - PBO Diff","[2]; UPA 30 mg vs in-trial PBO, p=0.222",Diff = −1.4
same,"Flare during Period 1, UPA - PBO Diff","[2]; UPA 30 mg vs in-trial PBO, p=0.231",Diff = −6.5
same,"Pain NRS30 at Week 12, UPA - PBO Diff (adjusted difference)","[2]; UPA 30 mg vs synthetic plus in-trial PBO (N=80), p=0.323","4.5% (−14.6, 23.5)"
same,"Pain NRS30 at Week 12, UPA - PBO Diff (adjusted difference)","[2]; UPA 30 mg vs synthetic plus in-trial PBO (N=80), p=0.323, listed as UPA",Diff = 4.5%
same,"HiSCR at Week 12, UPA - PBO Diff (adjusted difference)","[2]; UPA 30 mg vs synthetic plus in-trial PBO (N=89), NRI-C, p=0.142","9.2% (−7.6, 25.9)"
same,"HiSCR at Week 12, UPA - PBO Diff (adjusted difference)","[2]; UPA 30 mg vs synthetic plus in-trial PBO (N=89), NRI-C, p=0.142, listed as UPA",Diff = 9.2%
same,"HiSCR at Week 12, % (N), stratum TNF-IR","[2]; MI, analysis vs in-trial PBO",41.7% (N = 12)
same,"HiSCR at Week 12, % (N), stratum Hurley Stage (III)","[2]; MI, analysis vs in-trial PBO",39.7% (N = 23)
same,"HiSCR at Week 12, % (N), stratum Hurley Stage (<III)","[2]; MI, analysis vs in-trial PBO",38.1% (N = 24)
same,"HiSCR at Week 12, % (N), stratum TNF-Naïve","[2]; MI, analysis vs in-trial PBO",37.9% (N = 35)
same,"HiSCR at Week 12, % (N), Overall","[2]; MI, analysis vs in-trial PBO",38.9% (N = 47)
same,"HiSCR at Week 12, % (N), stratum TNF-IR",[2]; [4],41.7% (N = 12)
same,"HiSCR at Week 12, % (N), stratum Hurley Stage (III)",[2]; [4],40.3% (N = 23)
same,"HiSCR at Week 12, % (N), stratum Hurley Stage (<III)",[2]; [4],39.0% (N = 24)
same,"HiSCR at Week 12, % (N), stratum TNF-Naïve",[2]; [4],39.0% (N = 35)
same,"HiSCR at Week 12, % (N), Overall",[2]; [4],39.6% (N = 47)
same,"HiSCR at Week 12, % (N), stratum TNF-IR",[2]; NRI-C,41.7%
